Reference: patent US20250241308A1, “COMPOSITIONS AND METHODS FOR CONTROLLING PESTS” (PYRONE SYSTEMS, INC., priority 2022, published 2025)
Marks after values point to notes of the source that are not given here.

Key:
[1] = system: Aedes aegypti Orlando strain (pyrethroid-susceptible); experiment: Topical application KD50 and LD50, pyrethroid-susceptible strain
[2] = system: Aedes aegypti Puerto Rican strain (pyrethroid-resistant); experiment: Topical application KD50 and LD50, pyrethroid-resistant strain
[3] = system: pyrethroid-susceptible (Orlando) strain of Aedes aegypti female adult mosquitoes; experiment: Spatial repellency, static air repellency chamber, Orlando strain; format: in vivo; details: for EC50 (spatial repellency): 1 hour after introducing treated filter papers
Method: Spatial repellency of pogostone was assessed on pyrethroid-susceptible (Orlando) and pyrethroid-resistant (Puerto Rico) strains of Aedes aegypti female adult mosquitoes. Repellency bioassays were performed using a static air repellency chamber, which has been described previously (Schultz, 2006; Peterson, 2018). Briefly, the repellency chamber consists of a clear glass cylinder 600 mm in length with an inner diameter of roughly 85 mm laying horizontally. One end of the cylinder is capped with an untreated 90-mm filter paper (Whatman No. 1) contained in a 90-mm inner diameter glass petri dish, and sealed with tape to remain closed. The other end is capped in the same manner, except the filter paper has been treated with 1 mL of a 0.5% (w/v) solution of a monoterpenoid ester in acetone, resulting in 78.6 μg/cm^2 of repellent on the filter paper. The solution was added to the filter paper evenly and at a rate such that the evaporation of acetone prevents loss of compound from dripping, and the acetone was allowed to evaporate at room temperature for a further 10 minutes before use for the short-term repellency assay, or for an additional five hours under open air in ambient conditions in the case of long-term repellency studies. Shortly after placing the filter papers on the end of the tube, twenty (not blood fed) female […] mosquitoes were anesthetized with carbon dioxide, and placed into the tube via a 20-mm hole halfway down the length of the tube, and the hole was sealed. This process is performed with as little disturbance to the air in the tube as possible. The distribution of mosquitoes between the treated and untreated sides was then noted at 15, 30, 60, 90, 120, and 150 minutes after placement into the tube. Repellency ratio of Orlando or Puerto Rico mosquitoes was recorded as a proportion of the number of mosquitoes on the treated side of the tube compared to the whole tube [number of treated side/total number throughout entire tube] at 1 hour after introducing the treated filter papers.

[4] = system: Aedes aegypti adult female mosquitoes; experiment: LD50 of insecticides alone and in combination with sublethal pogostone; format: in vivo; details: for Synergism Ratio: LD50 of insecticide alone / LD50 of insecticide in combination with pogostone; for LD50: insecticide alone or with pogostone at sublethal dosage, pogostone effect corrected with Abbott's formula
Description: The dashed line indicates sublethal dosage of pogostone used for synergist experiments in Example 2.
Synergism ratios are presented as the ratio of the LD50 of insecticide alone and the LD50 of insecticide applied in combination with pogostone. The insecticidal effect of pogostone alone is corrected for using Abbott's formula (Equation 1) in all treatments using pogostone.

[5] = system: house fly strain CAR21 (S); experiment: Median lethal dose determination, house fly CAR21; format: in vivo
Method: (§1) 24-hour median lethal dose determinations of pogostone and permethrin were performed in three house fly strains and one stable fly strain. The KS17 resistant strain below is simultaneously resistant to organophosphates, carbamates, and synthetic pyrethroids.
(§2) 48-hour median lethal dose determinations of pogostone and permethrin were performed in three house fly strains. The KS17 resistant strain below is simultaneously resistant to organophosphates, carbamates, and synthetic pyrethroids.

[6] = system: house fly strain KS17 (R); experiment: Median lethal dose determination, house fly KS17; format: in vivo; details: for LD50: KS17 (R); for RR (resistance ratio): KS17 (R) LD50 divided by susceptible strain LD50, NS = not significantly different
Method: as §1, §2

Stable flies (S) = experiment: Median lethal dose determination, stable fly; format: in vivo; details: 24-hour
Method: as §1

house fly strain WHF (R) = experiment: Median lethal dose determination, house fly WHF; format: in vivo; details: for LD50: WHF (R); for RR (resistance ratio): WHF (R) LD50 divided by susceptible strain LD50
Method: as §1, §2

[7] = system: pyrethroid-resistant (Puerto Rico) strain of Aedes aegypti female adult mosquitoes; experiment: Spatial repellency, static air repellency chamber, Puerto Rico strain; format: in vivo
Method: Spatial repellency of pogostone was assessed on pyrethroid-susceptible (Orlando) and pyrethroid-resistant (Puerto Rico) strains of Aedes aegypti female adult mosquitoes. Repellency bioassays were performed using a static air repellency chamber, which has been described previously (Schultz, 2006; Peterson, 2018). Briefly, the repellency chamber consists of a clear glass cylinder 600 mm in length with an inner diameter of roughly 85 mm laying horizontally. One end of the cylinder is capped with an untreated 90-mm filter paper (Whatman No. 1) contained in a 90-mm inner diameter glass petri dish, and sealed with tape to remain closed. The other end is capped in the same manner, except the filter paper has been treated with 1 mL of a 0.5% (w/v) solution of a monoterpenoid ester in acetone, resulting in 78.6 μg/cm^2 of repellent on the filter paper. […] Repellency ratio of Orlando or Puerto Rico mosquitoes was recorded as a proportion of the number of mosquitoes on the treated side of the tube compared to the whole tube [number of treated side/total number throughout entire tube] at 1 hour after introducing the treated filter papers.

| SMILES | KD50 [1] [ng/mg] | LD50 [1] [ng/mg] | KD50 [2] [ng/mg] | LD50 [2] [ng/mg] | EC50 (spatial repellency) [3] | Synergism Ratio [4] | LD50 [4] [ng/mg] | LD50 ([5]; 24-hour) | LD50 ([5]; 48-hour) | LD50 ([6]; 24-hour) | LD50 ([6]; 48-hour) | LD50 (Stable flies (S)) [ng/fly] | LD50 (house fly strain WHF (R); 24-hour) | RR (resistance ratio) (house fly strain WHF (R); 24-hour) | LD50 (house fly strain WHF (R); 48-hour) | RR (resistance ratio) (house fly strain WHF (R); 48-hour) | further results |
| --- | --- | --- | --- | --- | --- | --- | --- | --- | --- | --- | --- | --- | --- | --- | --- | --- | --- |
| Clc1ccc(C(c2ccc(Cl)cc2)C(Cl)(Cl)Cl)cc1 [DDT] | 9.5 | 9.6 | 350 | 530 |  |  |  |  |  |  |  |  |  |  |  |  |  |
| CCN(CC)C(=O)c1cccc(C)c1 [DEET] |  |  |  |  | approximately 10 μg/cm^2 |  |  |  |  |  |  |  |  |  |  |  |  |
| CN/C(=N/CC1CCOC1)N[N+](=O)[O-] (stereo not shown) [Dinotefuran] |  |  |  |  |  | 6.0* | 12.7 |  |  |  |  |  |  |  |  |  |  |
| CC1(C)C(C=C(Cl)Cl)C1C(=O)OCc1cccc(Oc2ccccc2)c1 (stereo not shown) [Permethrin] |  |  |  |  |  | 2.6* | 0.37 | 15.4 ng/fly | 14.5 ng/fly | >5000 ng/fly | >5,000 ng/fly | 1.81 | 1,100 ng/fly | 71.5 | 894 ng/fly | 61.7 | RR (resistance ratio) ([6]; 24-hour): 325.1; RR (resistance ratio) ([6]; 48-hour): 344.8 |
| Cc1cc(O)c(C(=O)CCC(C)C)c(=O)o1 [pogostone] | 11 | 96 | 14 | 70 | 3.6 μg/cm^2 |  |  | 7,600 ng/fly | 6,800 ng/fly | 10,700 ng/fly | 6,890 ng/fly | 540 | 13,900 ng/fly | 1.8 | 9,900 ng/fly | 1.5 | spatial repellency (in words) ([3]; FIG. 2): considerably repellent; EC50 (spatial repellency) ([7]; 1 hour after introducing treated filter papers): 2.5 μg/cm^2; spatial repellency (in words) ([7]; FIG. 2): considerably repellent |
